Experimental data taken from article PMC12864978, “Covalent modification of a glutamic acid inspired by HaloTag technology” (Nature Communications, 2026).

Tests used:
HAP1 PDEδ knockout cells = assay: Relative growth after 72 h; assay type: cell-based; conditions: 0 - 50 µM
Procedure: Real-time cell analysis (RTCA) was conducted using an Incucyte S3 live-cell analysis system (Sartorius AG, Germany). […] Following attachment overnight, the medium was replaced with fresh medium containing test compounds, with all conditions adjusted to contain 0.5% DMSO. […] Phase-contrast images (2 images per well) were automatically captured at 2-h intervals until control wells (DMSO-treated) reached full confluency. Cell growth was quantified using the instrument’s integrated Basic Analyser module by applying a confluence mask to calculate the percentage of phase area confluence. […] Dose-response curves were generated and fitted via four-parameter variable slope nonlinear regression to determine cellular IC₅₀ values.

[1] = target: T1, PDEδ in the presence of Arl2•GppNHp (Homo sapiens, UniProt O43924); assay: Competitive fluorescence polarisation assay in the presence of Arl2•GppNHp; assay type: binding
T1 construct: His tag; made in house; host or cells: Escherichia coli Rosetta (BL21DE3), pET plasmids
Source text: (§1) Data are presented as mean ± s.e.m.

PDEδ [2] = target: T2, PDEδ (Homo sapiens, UniProt O43924); assay: In-cell covalent modification of PDEδ (immunoblot); conditions: 2 h
[3] = target: T3, Jurkat cell lysate proteome (Homo sapiens, UniProt Q16854); assay: In-lysate thermal proteome profiling (TPP)
T3 sequence (Q16854 40-277): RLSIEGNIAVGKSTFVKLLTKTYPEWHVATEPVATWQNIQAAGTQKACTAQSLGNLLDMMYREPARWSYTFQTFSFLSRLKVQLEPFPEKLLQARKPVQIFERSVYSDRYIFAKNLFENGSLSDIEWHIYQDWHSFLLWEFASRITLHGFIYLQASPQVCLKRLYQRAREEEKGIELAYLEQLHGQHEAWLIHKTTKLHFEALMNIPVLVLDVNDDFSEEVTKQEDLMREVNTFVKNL

Mouse plasma stability = assay type: in vitro ADME; conditions: 50% mouse plasma in PBS, within an hour
Source text: plotted as mean ± standard deviation, representative of 3 technical replicates ( N = 3). Unpaired, two-
Data were plotted as mean ± standard deviation, representative of 3 technical replicates in the presence

PDEδ [4] = target: T2, PDEδ; assay: Covalent modification of PDEδ by MALDI mass spectrometry; assay type: binding; design: His tag; made in house; host or cells: Escherichia coli Rosetta (BL21DE3), pET plasmids
Procedure: (§2) The solution was briefly centrifuged before a sample was taken at the designated time for analysis by MALDI. […] Mass spectra were obtained over the m/z range 15,000–25,000 using a Bruker UltrafleXtreme XIAL DI-TOF/TOF mass spectrometer. Percentages of covalent adduct formation were estimated by the relative intensity of the respective peaks in MALDI spectra.
1. Supplementary Figures and Tables
PDEδ (20 µM) was incubated with compounds (60 µM) in HEPES
Percentages of covalent adduct formation were estimated by the relative intensity of the respective peaks in MALDI spectra. Data are presented as mean ± s.e.m.
Apparent pseudo -first order kobs was estimated by percentages of covalent adduct formation at 2 hours by MALDI. Plot of kobs (h-1) against concentration (µM) was fitted by GraphPad […]
Prism Michaelis-Menten model and separate values for kinact and KI were obtained to calculate apparent […]
PDEδ (20 µM) was incubated with
as §1
HEPES buffer, n = 3 for the rest). One-way ANOVA with matched time-points, with Geisser-

PDEδ [5] = target: T2, PDEδ; assay: Differential scanning fluorimetry (NanoDSF); assay type: binding; design: His tag; made in house; host or cells: Escherichia coli Rosetta (BL21DE3), pET plasmids
Procedure: Afterwards, a sample of the solution was cooled down to room temperature and was loaded onto a capillary, followed by the measurement of fluorescence intensities at 350 nm and 330 nm from 20 °C up to 90 °C (with a rate of increment of 1 °C/min) using the Prometheus Panta device (NanoTemper® Technologies, DE).

[6] = tested on: mTORC1 substrate S6P in PA-TU-8902 cells; conditions: 10 µM
PDEδ in Jurkat cells = target: T4, PDEδ in Jurkat cells (Homo sapiens, UniProt O43924); assay: CETSA in intact cells (in-cell CETSA); assay type: cell-based; conditions: 15 min at 37 °C
T4 construct: host or cells: Jurkat
Procedure: Cells were collected and resuspended in cold PBS and further washed thrice in cold PBS. […] Afterwards, NP40 alternative was added to a final concentration of 0.4% (v/v), and cells were lysed by five consecutive freeze/thaw cycles. […] Supernatants were transferred to new tubes, and equal volumes of each sample were loaded on an SDS-PAGE gel and subjected to immunoblot analysis.

[7] = GSH adduct formation (stability in the presence of GSH); assay type: physicochemical; conditions: phosphate buffer with 10 mM GSH; 10-fold excess of GSH at 10 mM, phosphate buffer pH 7.4, 37 °C; read-out: half-life for GSH adduct formation t1/2 GSH (converted)
Procedure: Compound (1 mM) was incubated with the respective buffers (HEPES 20 mM, 150 mM NaCl, pH = 7.5; 0.2 M sodium acetate buffer, pH = 5.6; 0.2 M sodium citrate buffer, pH = 6.2; 0.2 M potassium phosphate buffer, pH = 7.4, 1 mM EDTA, with or without 10 mM GSH), with 1% DMSO adjusted for all conditions. […] Per cent (%) compound remaining in the solution was estimated by the ratio of areas under the curve, and data plotted were fitted to pseudo-1st kinetics in the calculation of rate constants (k) and half-lives (t1/2), where k is the negative slope of a linear regression of In (% compound remaining) over time. Half-lives (t1/2) in respective buffers and half-lives for GSH adduct formation (t1/2 GSH) were calculated with the following equations:1 t1/2=In2/k 2 kGSH=ktotalconsumptioninphosphatebufferinpresenceofGSH−k(phosphatebufferinabsenceofGSH) 3 t1/2GSH=In2/k(GSH) […]
a, Percentage (%) of compound remaining was monitored by HPLC-MS and data was fitted to pseudo-first kinetics in calculation of rate constants (k) and half-lives (t1/2) in respective buffers, where k is the negative slope of a linear regression of In (% compound remaining) over time and t 1/2 = In2/k. Initial […]
Initial GSH concentration =

[8] = target: T1, PDEδ in the presence of Arl2•GppNHp; assay: Kinetics of covalent modification of PDEδ by MALDI in the presence of Arl2•GppNHp; assay type: binding; conditions: PDEδ: Arl2•GppNHp = 1:1, 3 eq. of 6a
Source text: as §1, §2

Cc1ccc(-n2nc3c(=O)n(CCCCS(=O)(=O)N(CCc4cccc(CCBr)c4)CC4CCNCC4)nc(C)c3c2C)cc1 [6a]
growth impairment of HAP1 PDEδ knockout cells compared to HAP1 wild type cells (HAP1 PDEδ knockout cells): less pronounced | IC50 ([1]; 37 °C, PDEδ 40 nM, Arl2•GppNHp 40 nM, FA probe 24 nM): 10.1 ± 2.6 nM | IC50 ([1]; pre-incubated with PDEδ at 37 °C overnight before addition of Arl2•GppNHp): 4.8 ± 1.5 nM | in-cell covalent modification of PDEδ (PDEδ [2]): covalent binding of DeltaTag (6a) to PDEδ within 2 h | ΔAUC DGUOK ([3]; 10 µM, 15 min): -2.3 | ΔI67°C DGUOK ([3]; 10 µM, 15 min): 0 ± 2% | ΔTm at 10 µM ([3]; read-out: ΔTm DGUOK, 10 µM, 15 min): -2.9 ± 1.9 °C | stability in mouse plasma (Mouse plasma stability): stable in mouse plasma | KI (PDEδ [4]; Michaelis-Menten fit of kobs): 464900 nM | covalent modification of PDEδ in different solvents (PDEδ [4]; buffers of various pH, 8 h and 24 h): pH-independent | % labelling at 24 h (PDEδ [4]; representative MALDI spectrum, Fig. 2c): 100% | ΔTm (NanoDSF) (PDEδ [5]; 2 h incubation): 13.5 ± 0.2 °C | ΔTm at 60 µM (PDEδ [5]; PDEδ 20 µM, compound 60 µM, mean ± s.d., Fig. 2e, read-out: melting temperature shift ΔTm (NanoDSF)): 15.5 ± 1 °C | S6P phosphorylation [6]: reduced S6P phosphorylation in a time-dependent manner | ΔTm at 10 µM (PDEδ in Jurkat cells): 9.3 ± 0.2 °C | half-life at 1 mM [7]: 43.1 days | rate of covalent PDEδ modification in the presence of Arl2•GppNHp [8]: comparable rate
